SMILES strings stand for the structures.

This note sets out measurements from patent EP1394169A1, “Organometallic complex” (Hwu, Jih-Ru, priority 2002, dated 2004).

The test system of test [1] is 160-bp dsDNA fragment was prepared from the 501―660 fragment of pBR322 DNA. The test is described as follows: Site-specific DNA cleavage of 5'-32P-labeled 160-bp dsDNA fragment (polyacrylamide/urea gel, autoradiogram). The class given is biochemical. Particulars: complex 20―100 µM, 350-nm UV 2.0 h. As to the method:
A 160-bp dsDNA fragment was prepared from the 501―660 fragment of pBR322 DNA. It was amplified by the polymerase chain reaction (Bailly & Waring (1995) J. Am. Chem. Soc. 117:7311; Bailly et al. (1993) J. Am Chem. Soc. 115: 3784; and Sayers & Waring (1993) Biochemistry 32: 9094), and labeled at the 5'-terminus with γ-[^32P]-ATP and T4 polynucleotide kinase. A reaction mixture containing a 5'-terminus labeled ^32P-DNA solution, a phosphate buffer (0-10 M, pH 6.0), and complex 1 (20―100 µM) in a Pyrex vial was preincubated at 37°C for 30 min. The reaction mixture was irradiated with 350-nm UV light under aerobic conditions for 2.0 h at room temperature. The bound metal complexes on DNA fragments were removed by using 0.30 N NaCN (pH = 11) at 37°C for 8.0 h (Schwartz et al. (1990) J. Am. Chem. Soc. 112: 3673; and Zou et al. (1994) Biochemistry 33: 5404). The reaction mixture was then quenched with either a gel-loading buffer or 95% ethanol. […] The samples and the Maxam-Gilbert markers were analyzed using 10% polyacrylamide/8.0 M urea gel. […] Quantitation of relative intensities of DNA fragments was performed using a Microtek scanner and NIH 1.60 image program.
The detected DNA fragments were compared with Maxam-Gilbert markers on an autoradiogram, and quantitated by a computer-assisted program.

In test [2] the test system is supercoiled circular φX174 RFI DNA. The test is described as follows: Single-strand DNA cleavage of supercoiled circular DNA under 350 nm UV irradiation (agarose gel). Particulars: for (% form I) / (% form II) / (% form II)/ (% form I) / DNA forms observed on gel: 350 nm UV 2.0 h. The class given is biochemical. Here is the method:
Cleavage at various pH's: A reaction mixture (10 µL) containing supercoiled circular φX174 RFI DNA stock solution (50 µM/base pair), complex 1 (5.0 µM), and a phosphate buffer (0.10 M, pH 5.0, 6.0, 7.0, and 8.0) in a Pyrex vial was preincubated at 37°C. The reaction mixture was then irradiated with 350 nm UV light (32-W) for 2.0 h at room temperature. After adding a gel-loading buffer (025% bomophenol blue, 0.25% xylene cyanol, and 30% glycerol), the reaction mixture was loaded on a 1% agarose gel, followed by ethidium bromide staining. The gel was visualized by a 312-nm UV transilluminator and photographed by a FB-PDC-34 camera. Supercoiled circular DNA and cleaved DNA were clearly seen from the gel.
Cleavage at various complex concentrations: A reaction mixtures (10 µL) containing supercoiled circular φX174 RFI DNA stock solution (50 µM/base pair), complex 1 (0.050―100 µM), and a phosphate buffer (0.10 M, pH 6.0) in a Pyrex vial was preincubated at 37°C. The mixture was irradiated with 350 nm UV light (32-W) for 2.0 h at room temperature. After adding a gel-loading buffer (0.25% bromophenol blue, 0.25% xylene cyanol, and 30% glycerol), the reaction mixture was loaded on a 1% agarose gel, followed by ethidium bromide staining. The gel was visualized by a 312-nm UV transilluminator and photographed by a FB-PDC-34 camera. Supercoiled circular DNA (form I) and cleaved DNA (form II) were clearly seen from the gel.

Test [3] relates to 2'-deoxyguanosine. The test is described as follows: Binding and cyclization reaction with 2'-deoxyguanosine (LC-mass). Here is the method:
As a comparison, a reaction involving 2'-deoxyguanosine and complex 1 was carried out. Complex 1 bound to the C-2 amino on a guanine to form a Pt-N covalent bond. […] As a result, cleavage at a guanine site required assistance from an external base (e.g., piperidine). In another experiment, an excess of complex 1 was added to a 2'-deoxyguanosine solution, followed by piperidine treatment. An intermediate was detected, at a yield of 42%, with a signal at 1063.9 for (M + H^+) as analyzed by an electron spray ionization detector in LC-mass chromatogram. The intermediate was able to give a cyclization product, at a yield of 80%, with a signal at 792.0 for (M + H^+) upon 350-nm UV light irradiation, but not in the dark. The scheme below depicts the just-described reaction: [drawing 5]

Test [4] concerns supercoiled circular φX174 RFI DNA. The test is described as follows: Single-strand DNA cleavage of supercoiled circular DNA under 350 nm UV irradiation (agarose gel). Conditions: in the dark. The class given is biochemical.
Test [5] deals with double helical oligonucleotide d(ATAT)2. The test is described as follows: DNA binding and cleaving mechanism with oligonucleotide (LC-mass). Conditions: 1:1, phosphate buffer pH 6.0, in the dark for 2.0 h. Here is the method:
A double helical oligonucleotide d(ATAT)2 was prepared and added to a phosphate buffer solution (pH = 6.0) containing complex 1(1:1). The solution was kept in the dark for 2.0 h. An intermediate was detected, at a yield of 57%, with a signal at 650.1 for (M + H^+) as analyzed by an electron spray ionization detector in LC-mass chromatogram. Then, the solution was irradiated with 350 nm-UV light for 2.0 h at room temperature. A product was detected with a signal at 456.1 for (M + H^+). […] Then an intramolecular cyclization took place to remove the DMSO and to form a covalent bond between the N-7 nitrogen atom and the platinum in complex 1, resulting in the oligonucleotide cleavage.

Consider `C[S+](C)(=O)[Pt-2]1([Cl])[O][n+]2ccccc2[S]1` (centres unmarked) [complex 1, PtCl(DMSO)[η^2-C5H4SN(O)]], for which the entries for the “site of DNA cleavage” value in test [1] (with hot piperidine treatment) and in test [1] (without piperidine treatment) were “cleaved DNA at purine residues” and “at adenine residues”, respectively. Besides, the “(% form I)” value is on record as 37% in test [2] (complex 1.0 µM, pH 6.0); 20% in test [2] (complex 2.5 µM, pH 6.0); 7.1% in test [2] (complex 5.0 µM, pH 6.0); 93% in test [4] (complex 500 µM, pH 6.0). For the same compound, the “(% form II)” value in test [2] (complex 1.0 µM, pH 6.0) is recorded as 63%; in test [2] (complex 2.5 µM, pH 6.0), 80%; in test [2] (complex 5.0 µM, pH 6.0) it was 93%; in test [4] (complex 500 µM, pH 6.0), 7.0%. Also, the “(% form II)/ (% form I)” value in test [2] (complex 1.0 µM, pH 6.0) is 1.7; in test [2] (complex 2.5 µM, pH 6.0), 4.0; in test [2] (complex 5.0 µM, pH 6.0), 13; in test [4] (complex 500 µM, pH 6.0), 0.070. In addition, the “DNA forms observed on gel” value in test [2] (complex 5.0 µM, pH 5.0) was “only cleaved DNA was observed”; in test [2] (complex 5.0 µM, pH 6.0) it was “only cleaved DNA was observed”; in test [2] (complex 5.0 µM, pH 7.0), “only cleaved DNA was observed”; in test [2] (complex 5.0 µM, pH 8.0), “both supercoiled circular DNA and cleaved DNA were observed”. For the same compound, the DNA cleaving activity entry in test [2] (concentration as low as 1.0 µM) is given as “very strong DNA cleaving activity”. Moreover, the “yield of intermediate (complex bound to guanine)” value in test [3] (excess of complex, followed by piperidine treatment) is given as 42%. Also, in test [3] (upon 350-nm UV light irradiation), the “yield of cyclization product from intermediate” value is listed as 80%. Further, in test [4], the “cleavage of single-strand DNA” value was “did not occur”. In addition, the “yield of intermediate (complex bound to adenine)” value in test [5] turned out to be 57%.
